# In US9688669B2, “Oxazolidinones as modulators of mGluR5” (BRISTOL-MYERS SQUIBB COMPANY, priority 2013, dated 2017):
# Molecular target: human mGluR5A (Homo sapiens (Human), UniProt P41594)
# Assay: mGluR5 FLIPR Assay
# Assay type: cell-based
# Settings: positive modulator activity, HEK293 (ZF) cells with human mGluR5A and rat GLAST, Ca++ response to ~EC10 l-glutamate
# Procedure: HEK293 (ZF) cells stably transfected with human mGluR5A (pIRES neo) and the rat glutamate-aspartate transporter (GLAST; pIRES puro) are grown in a monolayer culture at 37° C. in 5% CO2 and fed with Minimum Essential Medium (MEM) supplemented with 10% dialysed fetal bovine serum. […] Plates are incubated in dye at 37° C. in 5% CO2 for 60 minutes prior to delivery of test compounds in assay buffer. Test compounds are incubated with cells in the presence of dye for 10 minutes prior to being read on the FLIPR platform (Molecular Devices). A Ca^++ signal is induced in the assay plates via the delivery of an ˜EC10 concentration of the endogenous agonist 1-glutamate; images are acquired at 1 Hz for 100 seconds post-delivery of agonist stimulus. Positive modulator activity (i.e. the ability of test compounds to increase the Ca^++ response to a sub-maximal concentration of agonist) is normalized to a saturating concentration of a known mGluR5 PAM run in each assay plate. An EC50 concentration of test compounds is derived from 4-parameter logistic curve fits of transformed fluoresence data via proprietary software suite.
# Chain of human mGluR5A (P41594 other isoform, or with tags, fused parts or gaps): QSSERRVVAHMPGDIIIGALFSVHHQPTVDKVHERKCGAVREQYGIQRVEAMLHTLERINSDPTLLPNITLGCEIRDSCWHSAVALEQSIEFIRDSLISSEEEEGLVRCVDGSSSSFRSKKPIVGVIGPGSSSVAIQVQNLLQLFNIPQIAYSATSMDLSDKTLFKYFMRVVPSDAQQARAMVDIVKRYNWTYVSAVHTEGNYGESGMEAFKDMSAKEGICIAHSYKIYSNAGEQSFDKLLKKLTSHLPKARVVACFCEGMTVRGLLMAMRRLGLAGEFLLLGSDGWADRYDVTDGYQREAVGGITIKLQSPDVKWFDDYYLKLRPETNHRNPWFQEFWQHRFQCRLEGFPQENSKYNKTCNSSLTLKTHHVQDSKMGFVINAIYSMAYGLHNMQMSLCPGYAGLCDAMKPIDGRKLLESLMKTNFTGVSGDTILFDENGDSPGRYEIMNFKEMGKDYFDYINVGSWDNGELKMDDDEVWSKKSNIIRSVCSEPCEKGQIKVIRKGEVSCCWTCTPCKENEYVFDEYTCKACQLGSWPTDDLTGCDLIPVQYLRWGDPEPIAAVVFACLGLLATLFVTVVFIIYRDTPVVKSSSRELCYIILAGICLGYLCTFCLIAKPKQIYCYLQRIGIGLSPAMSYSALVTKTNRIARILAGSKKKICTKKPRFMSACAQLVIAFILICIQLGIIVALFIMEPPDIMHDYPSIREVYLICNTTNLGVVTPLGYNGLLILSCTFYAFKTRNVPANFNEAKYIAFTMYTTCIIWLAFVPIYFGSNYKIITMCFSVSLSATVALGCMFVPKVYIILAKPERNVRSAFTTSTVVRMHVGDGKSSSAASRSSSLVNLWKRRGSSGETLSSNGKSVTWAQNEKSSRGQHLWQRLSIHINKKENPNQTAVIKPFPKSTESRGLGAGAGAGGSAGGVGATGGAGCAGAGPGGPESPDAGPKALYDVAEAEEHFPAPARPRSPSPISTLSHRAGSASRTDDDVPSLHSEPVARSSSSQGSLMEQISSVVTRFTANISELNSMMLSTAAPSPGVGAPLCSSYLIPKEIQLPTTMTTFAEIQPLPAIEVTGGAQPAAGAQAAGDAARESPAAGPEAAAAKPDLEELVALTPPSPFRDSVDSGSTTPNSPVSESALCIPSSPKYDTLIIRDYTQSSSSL
row,Compound,EC50
1,"COc1cccc([C@H]2OC(=O)N[C@@H]2c2cccc(C#CC3CC3)c2)c1 [Example 80, (4R,5R)-4-(3-(Cyclopropylethynyl)phenyl)-5-(3-methoxyphenyl)oxazolidin-2-one]",> 3000 nM
2,"O=C1N[C@H](c2cncc(C#CC3CCCCC3)c2)[C@@H](c2cc(F)ccc2F)O1 [Example 81, (4R,5R)-4-(5-(Cyclohexylethynyl)pyridin-3-yl)-5-(2,5-difluorophenyl)oxazolidin-2-one]",351 nM
3,"O=C1N[C@H](c2cncc(C#CC34CCC(CC3)CC4)c2)[C@@H](c2cc(F)ccc2F)O1 [Example 82, (4R,5R)-4-(5-(Bicyclo[2.2.2]octan-1-ylethynyl)pyridin-3-yl)-5-(2,5-difluorophenyl)oxazolidin-2-one]",1310 nM
4,"O=C1N[C@H](c2cncc(C#CC3CCOCC3)c2)[C@@H](c2cc(F)ccc2F)O1 [Example 100, (4R,5R)-5-(2,5-Difluorophenyl)-4-(5-((tetrahydro-2H-pyran-4-yl)ethynyl)pyridin-3-yl)oxazolidin-2-one]",282 nM
5,"O=C1N[C@H](c2cc(C#CC3CC(F)(F)C3)cnc2F)[C@@H](c2cccc(F)c2)O1 [Example 111, (4R,5R)-4-(5-((3,3-Difluorocyclobutyl)ethynyl)-2-fluoropyridin-3-yl)-5-(3-fluorophenyl)oxazolidin-2-one]",104 nM
6,"O=C1N[C@H](c2cc(C#CC3CC(F)(F)C3)ccn2)[C@@H](c2ccccc2)O1 [Example 112, (4R,5R)-4-(4-((3,3-Difluorocyclobutyl)ethynyl)pyridin-2-yl)-5-phenyloxazolidin-2-one]",> 3230 nM
7,"O=C1N[C@H](c2cccc(C#CC3CC(F)(F)C3)n2)[C@@H](c2ccccc2)O1 [Example 113, (4R,5R)-4-(6-((3,3-Difluorocyclobutyl)ethynyl)pyridin-2-yl)-5-phenyloxazolidin-2-one]",> 3230 nM
8,"O=C1N[C@H](c2ccnc(C#CC3CC(F)(F)C3)c2)[C@@H](c2ccccc2)O1 [Example 114, (4R,5R)-4-(2-((3,3-Difluorocyclobutyl)ethynyl)pyridin-4-yl)-5-phenyloxazolidin-2-one]",> 3230 nM
9,"COc1cccc([C@H]2OC(=O)N[C@@H]2c2cccc(C#CC3CC(F)(F)C3)c2)c1 [Example 116, (4R,5R)-4-(3-((3,3-Difluorocyclobutyl)ethynyl)phenyl)-5-(3-methoxyphenyl)oxazolidin-2-one]",> 1610 nM
10,"O=C1N[C@H](c2cncc(C#CC3CC(F)(F)C3)c2)[C@@H](c2ccc(F)c(F)c2F)O1 [Example 118, (4R,5R)-4-(5-((3,3-Difluorocyclobutyl)ethynyl)pyridin-3-yl)-5-(2,3,4-trifluorophenyl)oxazolidin-2-one]",80.5 nM
11,"O=C1N[C@H](c2cncc(C#CC3CC(F)(F)C3)c2)[C@@H](c2ccc(F)c(F)c2)O1 [Example 119, (4R,5R)-4-(5-((3,3-Difluorocyclobutyl)ethynyl)pyridin-3-yl)-5-(3,4-difluorophenyl)oxazolidin-2-one]",21.6 nM
12,"O=C1N[C@H](c2cncc(C#CC3CC(F)(F)C3)c2)[C@@H](c2cc(F)c(F)cc2F)O1 [Example 122, (4R,5R)-4-(5-((3,3-Difluorocyclobutyl)ethynyl)pyridin-3-yl)-5-(2,4,5-trifluorophenyl)oxazolidin-2-one]",58.6 nM
13,"O=C1N[C@H](c2cncc(C#CC3CC3)c2)[C@@H](c2cccc(Cl)c2Cl)O1 [Example 125, (4R,5R)-4-(5-(Cyclopropylethynyl)pyridin-3-yl)-5-(2,3-dichlorophenyl)oxazolidin-2-one]",179 nM

# More lines, now with the values ahead:
row,EC50,Compound
1,> 3230 nM,"Cc1cn(CC#Cc2cncc([C@H]3NC(=O)O[C@@H]3c3cccc(F)c3)c2)cn1 [Example 71, (4R,5R)-5-(3-Fluorophenyl)-4-(5-(3-(4-methyl-M-imidazol-1-yl)prop-1-yn-1-yl)pyridin-3-yl)oxazolidin-2-one]"
2,16.6 nM,"O=C1N[C@H](c2cncc(C#CC(O)CC3CC3)c2)[C@@H](c2cccc(F)c2)O1 (stereo partly drawn) [Example 72, (4R,5R)-4-(5-(4-Cyclopropyl-3-hydroxybut-1-yn-1-yl)pyridin-3-yl)-5-(3-fluorophenyl)oxazolidin-2-one]"
3,129 nM,CC1CC1C(O)C#Cc1cncc([C@H]2NC(=O)O[C@@H]2c2cccc(F)c2)c1 (some centres unmarked) [Example 75]
4,334 nM,O=C1N[C@H](c2cncc(C#CC(O)C3CC3(F)F)c2)[C@@H](c2cccc(F)c2)O1 (some centres unmarked) [Example 76]
5,> 1610 nM,CC1(C)CC1C(O)C#Cc1cncc([C@H]2NC(=O)O[C@@H]2c2cccc(F)c2)c1 (some centres unmarked) [Example 77]
6,463 nM,"CN(C)CC#Cc1cncc([C@H]2NC(=O)O[C@@H]2c2cccc(F)c2)c1 [Example 79, (4R,5R)-4-(5-(3-(Dimethylamino)prop-1-yn-1-yl)pyridin-3-yl)-5-(3-fluorophenyl)oxazolidin-2-one]"
7,3670 nM,"O=C1N[C@H](c2cncc(C#CC34CCC(CC3)CC4)c2)[C@@H](c2cccc(F)c2)O1 [Example 84, (4R,5R)-4-(5-(Bicyclo[2.2.2]octan-1-ylethynyl)pyridin-3-yl)-5-(3-fluorophenyl)oxazolidin-2-one]"
8,1060 nM,"O=C1N[C@H](c2cncc(C#CC3(O)CCCCC3)c2)[C@@H](c2cccc(F)c2)O1 [Example 85, (4R,5R)-5-(3-Fluorophenyl)-4-(5-((1-hydroxycyclohexyl)ethynyl)pyridin-3-yl)oxazolidin-2-one]"
9,> 10800 nM,"CC1(C#Cc2cncc([C@H]3NC(=O)O[C@@H]3c3cccc(F)c3)c2)CCCCC1 [Example 87, (4R,5R)-5-(3-Fluorophenyl)-4-(5-((1-methylcyclohexyl)ethynyl)pyridin-3-yl)oxazolidin-2-one]"
10,377 nM,"O=C1N[C@H](c2cncc(C#CC34CCCCC3C4)c2)[C@@H](c2cccc(F)c2)O1 (stereo partly drawn) [Example 90, (4R,5R)-4-(5-(Bicyclo[4.1.0]heptan-1-ylethynyl)pyridin-3-yl)-5-(3-fluorophenyl)oxazolidin-2-one]"
11,96.2 nM,"O=C1N[C@H](c2cncc(C#CC3(F)CCCCC3)c2)[C@@H](c2cccc(F)c2)O1 [Example 91, (4R,5R)-4-(5-((1-Fluorocyclohexyl)ethynyl)pyridin-3-yl)-5-(3-fluorophenyl)oxazolidin-2-one]"
12,50.9 nM,"O=C1N[C@H](c2cncc(C#CC3CCC(F)(F)CC3)c2)[C@@H](c2cccc(F)c2)O1 [Example 92, (4R,5R)-4-(5-((4,4-Difluorocyclohexyl)ethynyl)pyridin-3-yl)-5-(3-fluorophenyl)oxazolidin-2-one]"
13,280 nM,"N#Cc1cccc([C@H]2OC(=O)N[C@@H]2c2cncc(C#CC3CC(F)(F)C3)c2)c1 [Example 107, 3-((4R,5R)-4-(5-((3,3-Difluorocyclobutyl)ethynyl)pyridin-3-yl)-2-oxooxazolidin-5-yl)benzonitrile]"
